Measurements reported in patent US20060024376A1, “Methods and compositions for reducing toxicity associated with leflunomide treatment” (The University of Chicago, priority 2004, published 2006).
Several values for one entry are separate records, joined by “and”; a condition that tells them apart may be missing. Equal values may be shown once.

Assays:
[1] = background statement, cited from earlier work
[2] = system: heart transplants from Brown-Norway rats; experiment: Heart transplant acute rejection: graft survival and inflammation score; assay type: in vivo, Lewis Rats; conditions: for Graft survival / Inflammation score (Mean) (0-3): orotic acid 0 mg/kg/day; for Inflammation score (Mean) (0-3): 0 = no inflammation
Experimental: Treatments included 0, 5, 10 or 15 mg/kg of leflunomide in combination with 0 or 100 mg/kg orotic acid.

[3] = Leflunomide toxicity measured by hematocrit; assay type: in vivo, Lewis rats; conditions: for Hct Week 0 / Hct Week 1 / Hct Week 2 / Hct Week 3 / Hct Week 4: individual rat; for Hct Week 0: baseline hematocrit; for Hct Week 1: week 1 of therapy; for Hct Week 2: week 2 of therapy; for Hct Week 3: week 3 of therapy; for Hct Week 4: week 4 of therapy
Experimental: The experiment of Example 2 was repeated in Lewis rats and the hematocrit measured weekly for four weeks. The rats receiving treatment were divided into five groups wherein each group received 30/mg/kg/day leflunomide, a toxic, high dose. Group I received leflunomide only. Group II received the leflunomide dose plus 36/mg/kg/day of sodium orotate; group III received the leflunomide dose plus 100 mg/kg/day of sodium orotate; group IV received the leflunomide dose plus 88 mg/kg/day of orotic acid; and group V received the leflunomide dose plus 250 mg/kg/day of uridine given IP. A baseline hematocrit was measured, and hematocrits of each rat were measured at weeks 1-4 post commencement of therapy.

## CC(=O)OC[C@H]1O[C@@H](n2ccc(=O)[nH]c2=O)[C@H](OC(C)=O)[C@@H]1OC(C)=O [TAU, 2′, 3′, 5′-tri-O-acetyl uridine]
[1]
  oral bioavailability: orally bioavailable

## Cc1oncc1C(=O)Nc1ccc(C(F)(F)F)cc1 [leflunomide, N-(4-trifluoromethylphenyl)-5-methylisoxazol-4-carboxamide]
[2]; leflunomide 5 mg/kg/day
  Graft survival: >30 days
  Inflammation score (Mean) (0-3): 2.0
[2]; leflunomide 10 mg/kg/day
  Graft survival: >30 days
  Inflammation score (Mean) (0-3): 1.7
[2]; leflunomide 15 mg/kg/day
  Graft survival: >30 days
  Inflammation score (Mean) (0-3): 1.5
[2]; leflunomide 5, 10, 15 mg/kg, dose-related
  Intensity of the rejection reaction (inflammation score): reduced the intensity of the rejection reaction
[3]; group mean, week 4
  Hct Week 4, group Mean: Mean: 23.8
[3]; listed as L 30
  Hct Week 0: 53 and 54 and 55 and 52
  Hct Week 1: 53 and 55 and 49 and 50
  Hct Week 2: 44 and 54 and 48 and 46
  Hct Week 3: 41 and 37 (2×) and 33
  Hct Week 4: 30 (2×) and 24 and 22
[3]; listed as L30
  Hct Week 0: 51 and 57
  Hct Week 1: 47 and 52
  Hct Week 2: 39 and 46
  Hct Week 3: 31 and 33
  Hct Week 4: 17 and 20

## O=C(O)c1cc(=O)[nH]c(=O)[nH]1 [orotic acid]
[2]; orotic acid 100 mg/kg with leflunomide 5-15 mg/kg
  Effect of orotic acid on efficacy of leflunomide to reduce the rejection reaction: did not significantly affect the efficacy of leflunomide
[1]; no test described
  bioavailability: approximately 50%
